Like-named read-outs stand apart in the source and are kept apart here.
Experiments:
[1] = target: T1, recombinant human c-Met/HGF receptor (Homo sapiens, UniProt P08581); assay: In vitro receptor tyrosine kinase assay (DELFIA), c-Met/HGF receptor; type: biochemical
T1 construct: His tag (pBlueBacHis2A vector); made in house; host or cells: Hi-5 cells (Trichoplusia ni), baculovirus
Method: Cell pellets were frozen at −80° C. until purification was performed.
The coated plates were washed and stored at 4° C. […] After incubation, the kinase reactions were quenched with EDTA and the plates were washed.

[2] = target: T2, VEGF receptor KDR (Homo sapiens, UniProt P35968); assay: In vitro receptor tyrosine kinase assay (DELFIA), VEGF receptor KDR; type: biochemical
T2 construct: made in house; host or cells: Sf9 cells (Spodoptera frugiperda), baculovirus

[3] = test system: A549; assay: A549 wound healing inhibition (HGF dependent migration); type: cell-based; details: Homo sapiens, A549 cells, read-out: A549 WOUND HEALING INHIB IC50
Description: (§1) HGF has well known activity in terms of inducing scattering and migration (wound healing) (Wells et al., Cell Motil Cytoskeleton. 2005 November 62(3):180-94; Miura et al., Urology 2001 December 58(6):1064-9; Nishimura et al., Int J Urol. 1998 May 5(3):276-81; Wang et al., Mol Cancer Ther. 2003 November; 2(11):1085-92; and Christensen et al., Cancer Res. 2003 Nov. 1; 63(21):7345-55).

[4] = test system: DU145; assay: DU145 scattering inhibition (HGF dependent scattering); type: cell-based; details: Homo sapiens, DU-145; HGF dependent scattering, DU145 cells; read-out: DU145 SCATTERING INHIB IC50
Description: as §1

[5] = target: T3, TPR-MET fusion protein (Homo sapiens, UniProt P08581); assay: C-Met phosphorylation cell-based assay (MNNGHOS cells)
T3 construct: the MET gene on chromosome 7 encoding for its cytoplasmic region catalytic domain; host or cells: MNNGHOS cells; the other entry of the earlier key: TPR (P12270, Nucleoprotein TPR)
Description: C-Met Phosphorylation Cell-Based Assay
Signal was quantitated by densitometry on Alpha-Imager.

[6] = recombinant c-Met IC, 10 uM ATP, DELFIA, read-out: C-Met (IC50)
[7] = GST-VEGFR2 806-1356, 0.6 uM ATP, DELFIA, read-out: VEGFR (IC50)
[8] = MNNGHOS cells, 3 hours treatment, immunoblot, read-out: Y1230-34-35 TPR-MET phosphorylation (IC50)

T2 sequence (P35968 806-1356): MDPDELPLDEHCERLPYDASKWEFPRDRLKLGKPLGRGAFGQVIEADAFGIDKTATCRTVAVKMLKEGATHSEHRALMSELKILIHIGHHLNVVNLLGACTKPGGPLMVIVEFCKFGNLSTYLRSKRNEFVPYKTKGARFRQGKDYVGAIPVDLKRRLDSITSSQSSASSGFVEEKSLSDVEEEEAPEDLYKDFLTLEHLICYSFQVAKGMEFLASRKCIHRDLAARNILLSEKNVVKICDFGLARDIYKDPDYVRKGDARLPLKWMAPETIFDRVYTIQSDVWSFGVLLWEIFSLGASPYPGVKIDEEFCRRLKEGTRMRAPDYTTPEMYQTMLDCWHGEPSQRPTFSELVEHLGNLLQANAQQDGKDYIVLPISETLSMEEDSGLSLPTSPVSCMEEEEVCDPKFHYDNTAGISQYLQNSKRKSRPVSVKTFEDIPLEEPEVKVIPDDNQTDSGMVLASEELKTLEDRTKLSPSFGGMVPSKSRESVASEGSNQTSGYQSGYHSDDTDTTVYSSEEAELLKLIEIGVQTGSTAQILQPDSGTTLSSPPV
T3 sequence (P08581 with tags, fused parts or gaps): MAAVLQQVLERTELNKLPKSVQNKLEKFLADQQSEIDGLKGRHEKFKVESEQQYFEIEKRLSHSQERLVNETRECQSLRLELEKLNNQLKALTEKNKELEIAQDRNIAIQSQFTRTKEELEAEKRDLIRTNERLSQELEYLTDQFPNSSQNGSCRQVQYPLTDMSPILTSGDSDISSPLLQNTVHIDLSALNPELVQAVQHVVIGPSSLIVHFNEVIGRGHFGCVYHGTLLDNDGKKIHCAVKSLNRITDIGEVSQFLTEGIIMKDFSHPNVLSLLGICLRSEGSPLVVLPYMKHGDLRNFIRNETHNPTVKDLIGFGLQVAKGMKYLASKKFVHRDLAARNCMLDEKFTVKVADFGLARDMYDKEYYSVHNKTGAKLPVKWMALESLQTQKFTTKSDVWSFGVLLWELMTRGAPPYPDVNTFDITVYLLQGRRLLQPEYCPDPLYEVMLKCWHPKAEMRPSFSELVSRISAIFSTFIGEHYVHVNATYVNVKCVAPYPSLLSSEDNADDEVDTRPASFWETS
T1 sequence (P08581 1078-1337): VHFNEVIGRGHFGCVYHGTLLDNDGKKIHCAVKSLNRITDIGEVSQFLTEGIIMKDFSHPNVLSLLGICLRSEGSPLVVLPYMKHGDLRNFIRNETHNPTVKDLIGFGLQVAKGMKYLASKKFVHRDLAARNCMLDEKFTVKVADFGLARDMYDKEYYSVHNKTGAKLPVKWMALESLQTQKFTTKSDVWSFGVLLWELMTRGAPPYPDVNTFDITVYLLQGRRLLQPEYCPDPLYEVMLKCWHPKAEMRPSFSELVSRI

O=C(CC(=O)Nc1ccccc1F)Nc1ccc(Oc2ccnc3cc(-c4cccc(CN5CCOCC5)c4)sc23)c(F)c1
IC50 ([1]; read-out: CMET IC50): < 50 nM
IC50 ([2]; read-out: VEGFR IC50): 50 to 250 nM
IC50 [3]: 1000 to 5000 nM
IC50 [4]: 1000 to 5000 nM

COc1ccccc1NC(=O)CC(=O)Nc1ccc(Oc2ccnc3cc(-c4cccc(CN(C)C)c4)sc23)c(F)c1
IC50 ([1]; read-out: CMET IC50): < 50 nM
IC50 ([2]; read-out: VEGFR IC50): 50 to 250 nM
IC50 [3]: < 1000 nM
IC50 [4]: < 1000 nM

COc1ccccc1NC(=O)CC(=O)Nc1ccc(Oc2ccnc3cc(-c4cn(C(C)C)cn4)sc23)c(F)c1
IC50 ([1]; read-out: CMET IC50): < 50 nM
IC50 ([2]; read-out: VEGFR IC50): < 50 nM
IC50 [3]: < 1000 nM
IC50 [4]: < 1000 nM

CC(C)n1cnc(-c2cc3nccc(Oc4ccc(NC(=O)CC(=O)Nc5ccccc5F)cc4F)c3s2)c1
IC50 ([1]; read-out: CMET IC50): < 50 nM
IC50 ([2]; read-out: VEGFR IC50): < 50 nM
IC50 [3]: 1000 to 5000 nM
IC50 [4]: < 1000 nM

CCn1cnc(-c2cc3nccc(Oc4ccc(NC(=O)CC(=O)Nc5ccc(F)cc5)cc4F)c3s2)c1
IC50 ([1]; read-out: CMET IC50): < 50 nM
IC50 ([2]; read-out: VEGFR IC50): < 50 nM
IC50 [3]: < 1000 nM
IC50 [4]: < 1000 nM

CCCn1cnc(-c2cc3nccc(Oc4ccc(NC(=O)CC(=O)Nc5ccccc5OC)cc4F)c3s2)c1
IC50 ([1]; read-out: CMET IC50): < 50 nM
IC50 ([2]; read-out: VEGFR IC50): < 50 nM
IC50 [3]: 1000 to 5000 nM
IC50 [4]: < 1000 nM

CCn1cnc(-c2cc3nccc(Oc4ccc(NC(=O)C5(C(=O)Nc6ccccc6OC)CC5)cc4F)c3s2)c1
IC50 ([1]; read-out: CMET IC50): < 50 nM
IC50 ([2]; read-out: VEGFR IC50): < 50 nM
IC50 [3]: < 1000 nM
IC50 [4]: < 1000 nM

CCCn1cnc(-c2cc3nccc(Oc4ccc(NC(=O)CC(=O)Nc5ccccc5F)cc4F)c3s2)c1
IC50 ([1]; read-out: CMET IC50): < 50 nM
IC50 ([2]; read-out: VEGFR IC50): < 50 nM
IC50 [3]: < 1000 nM
IC50 [4]: < 1000 nM

CNCCn1cnc(-c2cc3nccc(Oc4ccc(NC(=O)CC(=O)Nc5ccccc5OC)cc4F)c3s2)c1
IC50 ([1]; read-out: CMET IC50): 50 to 250 nM
IC50 ([2]; read-out: VEGFR IC50): < 50 nM
IC50 [3]: 1000 to 5000 nM
IC50 [4]: 1000 to 5000 nM

Cn1ccnc1-c1cc2nccc(Oc3ccc(NC(=O)CC(=O)Nc4ccccc4)cc3F)c2s1 [Compound 5b, N^1-(3-Fluoro-4-(2-(1-methyl-1H-imidazol-2-yl)thieno[3,2-b]pyridin-7-yloxy)phenyl)-N^3-phenylmalonamide]
IC50 [1, 6]: 52 nM
IC50 [2, 7]: 4 nM
IC50 [5, 8]: 40 nM

Cn1cnc(-c2cc3nccc(Oc4ccc(NC(=O)CC(=O)Nc5ccccc5)cc4F)c3s2)c1 [Compound 5c, N^1-{3-Fluoro-4-[2-(1-methyl-1H-imidazol-4-yl)thieno[3,2-b]pyridin-7-yloxy]-phenyl}-N^3-phenylmalonamide]
IC50 [1, 6]: 19 nM
IC50 [2, 7]: 3 nM
IC50 [5, 8]: 8 nM

Cn1cncc1-c1cc2nccc(Oc3ccc(NC(=O)CC(=O)Nc4ccccc4)cc3F)c2s1 [Compound 5e, N^1-(3-Fluoro-4-(2-(1-methyl-1H-imidazol-5-yl)thieno[3,2-b]pyridin-7-yloxy)phenyl)-N^3-phenylmalonamide]
IC50 [1]: 16 nM
IC50 [2, 7]: 5 nM
IC50 [5]: 155 nM

O=C(CC(=O)Nc1ccc(Oc2ccnc3cc(C(=O)N4CCCC4)sc23)c(F)c1)Nc1ccccc1 [Compound 5f, N^1-(3-Fluoro-4-(2-(pyrrolidine-1-carbonyl)thieno[3,2-b]pyridin-7-yloxy)phenyl)-N^3-phenylmalonamide]
IC50 [1, 6]: 40 nM
IC50 [2, 7]: 4 nM
IC50 [5, 8]: ~2000 nM

COc1ccccc1NC(=O)CC(=O)Nc1ccc(Oc2ccnc3cc(-c4nccn4C)sc23)c(F)c1 [Compound 28a, N^1-(3-Fluoro-4-(2-(1-methyl-1H-imidazol-2-yl)thieno[3,2-b]pyridin-7-yloxy)phenyl)-N^3-(2-methoxyphenyl)malonamide]
IC50 [1, 6]: 42 nM
IC50 [2, 7]: 5 nM
IC50 [5, 8]: ~200 nM

COc1ccccc1NC(=O)CC(=O)Nc1ccc(Oc2ccnc3cc(-c4cncn4C)sc23)c(F)c1 [Compound 28c, N^1-(3-Fluoro-4-(2-(1-methyl-1H-imidazol-5-yl)thieno[3,2-h]pyridin-7-yloxy)phenyl)-N^3-(2-methoxyphenyl)malonamide]
IC50 [1, 6]: 40 nM
IC50 [2, 7]: 13 nM
IC50 [5, 8]: 590 nM

Cn1ccnc1-c1cc2nccc(Oc3ccc(NC(=O)CC(=O)Nc4cccnc4)cc3F)c2s1 [drawing 282]
IC50 ([1]; read-out: CMET IC50): 250 to 500 nM
IC50 ([2]; read-out: VEGFR IC50): < 50 nM
IC50 [3]: < 1000 nM
IC50 [4]: 1000 to 5000 nM

COc1ccccc1NC(=O)CC(=O)Nc1ccc(Oc2ccnc3cc(-c4nccn4C)sc23)c(F)c1 [drawing 284]
IC50 ([1]; read-out: CMET IC50): < 50 nM
IC50 ([2]; read-out: VEGFR IC50): < 50 nM
IC50 [3]: < 1000 nM
IC50 [4]: 1000 to 5000 nM

Cn1ccnc1-c1cc2nccc(Oc3ccc(NC(=O)CC(=O)Nc4ccccc4F)cc3F)c2s1 [drawing 285]
IC50 ([1]; read-out: CMET IC50): < 50 nM
IC50 ([2]; read-out: VEGFR IC50): < 50 nM
IC50 [3]: < 1000 nM
IC50 [4]: < 1000 nM

CC(C(=O)Nc1ccccc1)C(=O)Nc1ccc(Oc2ccnc3cc(-c4nccn4C)sc23)c(F)c1 (stereo not drawn) [drawing 286]
IC50 ([1]; read-out: CMET IC50): 50 to 250 nM
IC50 ([2]; read-out: VEGFR IC50): < 50 nM
IC50 [3]: 1000 to 5000 nM
IC50 [4]: 1000 to 5000 nM

Cn1cnc(-c2cc3nccc(Oc4ccc(NC(=O)CC(=O)Nc5ccccc5)cc4F)c3s2)c1 [drawing 287]
IC50 ([1]; read-out: CMET IC50): < 50 nM
IC50 ([2]; read-out: VEGFR IC50): < 50 nM
IC50 [3]: < 1000 nM
IC50 [4]: < 1000 nM

Cn1cncc1-c1cc2nccc(Oc3ccc(NC(=O)CC(=O)Nc4ccccc4)cc3F)c2s1 [drawing 288]
IC50 ([1]; read-out: CMET IC50): < 50 nM
IC50 ([2]; read-out: VEGFR IC50): < 50 nM
IC50 [3]: < 1000 nM
IC50 [4]: < 1000 nM

COc1ccccc1NC(=O)CC(=O)Nc1ccc(Oc2ccnc3cc(-c4cncn4C)sc23)c(F)c1 [drawing 289]
IC50 ([1]; read-out: CMET IC50): < 50 nM
IC50 ([2]; read-out: VEGFR IC50): < 50 nM
IC50 [3]: 1000 to 5000 nM
IC50 [4]: 1000 to 5000 nM

Cn1cncc1-c1cc2nccc(Oc3ccc(NC(=O)CC(=O)Nc4cccnc4)cc3F)c2s1 [drawing 290]
IC50 ([1]; read-out: CMET IC50): 50 to 250 nM
IC50 ([2]; read-out: VEGFR IC50): < 50 nM
IC50 [3]: 1000 to 5000 nM
IC50 [4]: 1000 to 5000 nM

CCn1cnc(-c2cc3nccc(Oc4ccc(NC(=O)CC(=O)Nc5ccccc5OC)cc4F)c3s2)c1 [drawing 292]
IC50 ([1]; read-out: CMET IC50): < 50 nM
IC50 ([2]; read-out: VEGFR IC50): < 50 nM
IC50 [3]: 1000 to 5000 nM
IC50 [4]: < 1000 nM

CCn1cnc(-c2cc3nccc(Oc4ccc(NC(=O)CC(=O)Nc5ccccc5F)cc4F)c3s2)c1 [drawing 293]
IC50 ([1]; read-out: CMET IC50): < 50 nM
IC50 ([2]; read-out: VEGFR IC50): < 50 nM
IC50 [3]: < 1000 nM
IC50 [4]: < 1000 nM

CN(C)[C@@H]1CCN(C(=O)c2cc3nccc(Oc4ccc(NC(=O)CC(=O)Nc5ccccc5)cc4F)c3s2)C1 [drawing 294]
IC50 ([1]; read-out: CMET IC50): 50 to 250 nM
IC50 ([2]; read-out: VEGFR IC50): 50 to 250 nM
IC50 [3]: < 1000 nM
IC50 [4]: 1000 to 5000 nM

COc1ccccc1NC(=O)CC(=O)Nc1ccc(Oc2ccnc3cc(-c4ccc(CN5CCCC5)cc4)sc23)c(F)c1 [drawing 295]
IC50 ([1]; read-out: CMET IC50): 50 to 250 nM
IC50 ([2]; read-out: VEGFR IC50): < 50 nM
IC50 [3]: 1000 to 5000 nM
IC50 [4]: < 1000 nM

CN(C)Cc1cccc(-c2cc3nccc(Oc4ccc(NC(=O)CC(=O)Nc5ccccc5F)cc4F)c3s2)c1 [drawing 316]
IC50 ([1]; read-out: CMET IC50): < 50 nM
IC50 ([2]; read-out: VEGFR IC50): 50 to 250 nM
IC50 [3]: 1000 to 5000 nM
IC50 [4]: < 1000 nM

CCn1cnc(-c2cc3nccc(Oc4ccc(NC(=O)C5(C(=O)Nc6ccccc6)CC5)cc4F)c3s2)c1 [drawing 317]
IC50 ([1]; read-out: CMET IC50): < 50 nM
IC50 ([2]; read-out: VEGFR IC50): < 50 nM
IC50 [3]: < 1000 nM
IC50 [4]: < 1000 nM

CN1CCN(CCN(C)Cc2ccc(-c3cc4nccc(Oc5ccc(NC(=O)CC(=O)Nc6ccccc6)cc5F)c4s3)cc2)CC1 [drawing 351]
IC50 ([1]; read-out: CMET IC50): < 50 nM
IC50 ([2]; read-out: VEGFR IC50): < 50 nM
IC50 [3]: < 1000 nM
IC50 [4]: < 1000 nM
